The source of these data is patent US20060078504A1, “Sustanined-release pharmaceutical composition for lung administration” (priority 2003, published 2006).

This data set is described as follows: Test Example 1: serum theophylline pharmacokinetics after intratracheal administration of solutions A to D to rats. The conditions noted are these: solution A, intratracheal vs intravenous (femoral vein), rat, FIG. 1. Type of data set: in vivo, Wistar male rats.

Description: Wistar male rats (body weight about 220 g) fasted for about 18 hours were used as experimental animals. […] That is, the rats were anesthetized with pentobarbital (about 32 mg/kg) and secured on their back on animal boards, the tracheas were exposed through a longitudinal incision. A section of polyethylene tube (i.d. 1.5 mm, o.d. 2.3 mm) 2.5 cm in length was inserted through the tracheal incision for a distance of 0.6 cm between the forth and fifth tracheal rings caudal to the thyroid cartilage. Each of one hundred microliters of drug solutions A-D was drawn into a glass microsyringe, and then rat was maintained at an angle of 80°. The tip of syringe was inserted through the polyethylene tube to 1-2 mm above the bifurcation of the trachea. Then, the solution was injected over a period of 1-2 sec. About 45 sec after the administration, the rat was positioned at an angle of 10° and the incision in the skin was then closed with suture.
The theophylline concentrations in the obtained serum were measured by HPLC.

In the case of `Cn1c(=O)c2[nH]cnc2n(C)c1=O` [theophylline], the “pulmonary absorption compared with intravenous administration (in words)” value is “as quick and effective as achieved by intravenous administration”.
